Values joined by “and” are separate entries in the source; they are usually repeats but may differ in a detail not shown here. Identical values can stand only once. Like-named read-outs stand apart in the source and are kept apart here.
Tests used:
[1] = system: patients with cystic fibrosis carrying at least one copy of the G551D-CFTR mutation; conditions: phase III trials; cited from earlier work
[2] = Pharmacokinetics in rats after oral gavage; type: in vivo; conditions: rat, PO 10 mg/kg in 100% PEG400, plasma; for half-life: plasma, po, 10 mg/kg
Description: Ivacaftor, compound 105 and compound 106 were discrete dosed to rats via oral gavage (PO). Each compound was administered at a dose of 10 mg/kg to three rats (N=3 rats/compound; total of 9 rats in the study). […] Blood samples were centrifuged to obtain plasma. Plasma samples were analyzed for concentrations of the dosed compound at each time point using LC-MS/MS. The limit of quantitation of each compound was 1 ng/mL.

[3] = individual animals, read-out: t1/2 (hr), individual animal (converted)
[4] = mean of N=3 rats, read-out: t1/2 (hr), Mean (converted)

Compound	lung function and other key indicators of the disease (sweat chloride levels, likelihood of pulmonary exacerbations, body weight) [1]	t1/2 (hr), individual animal ([2]; individual animals)	half-life [2, 3] [h]	half-life [2, 4] [h]
CC(C)(C)c1cc(C(C)(C)C)c(NC(=O)c2c[nH]c3ccccc3c2=O)cc1O [Ivacaftor, N-(2,4-di-tert-butyl-5-hydroxyphenyl)-4-oxo-1,4-dihydroquinoline-3-carboxamide, reference compound]	marked levels of improvement	12.43 h and 10.01 h	9.03	10.5
[2H]C([2H])([2H])C(c1cc(C(C([2H])([2H])[2H])(C([2H])([2H])[2H])C([2H])([2H])[2H])c(NC(=O)c2c[nH]c3ccccc3c2=O)cc1O)(C([2H])([2H])[2H])C([2H])([2H])[2H] [Compound 105, N-(2,4-Di-(tert-butyl-d9)-5-hydroxyphenyl)-4-oxo-1,4-dihydroquinoline-3-carboxamide]	–	16.33 h and 14.39 h	13.8	14.8
[2H]C([2H])([2H])C(c1cc(C(C)(C)C)c(NC(=O)c2c[nH]c3ccccc3c2=O)cc1O)(C([2H])([2H])[2H])C([2H])([2H])[2H] [Compound 106, N-(2-(tert-Butyl)-4-(tert-butyl-d9)-5-hydroxyphenyl)-4-oxo-1,4-dihydroquinoline-3-carboxamide]	–	14.28 h and 11.92 h	13.5	13.2
